Measurements from US20240180881A1, “METHODS FOR DECREASING RESISTANCE TO CHEMOTHERAPY” (National Institute of Immunology, priority 2022, published 2024).

Tested on: HCT116 IC60 CPTR tumors
Experiment: siRNA-based ablation in xenograft studies
Format: in vivo, SCID mice
Experimental: To determine whether the three key players (MRP2, BLM and RAD54) were indispensable for reverting chemoresistance in colon cancer, siRNA-based ablation in xenograft studies was carried out using SCID mice. Once the tumor volume reached 50 mm^3, either siControl or siRAD54 or siBLM or siMRP2 were injected at the base of the tumor using TAC6 polymer mediated in vivo delivery. The experiment was stopped after 21 days after which the levels of RAD54, BLM, MRP2 transcripts were analyzed by RT-qPCR to validate the downregulation of the cognate genes (FIG. 14A-14C). […] This is probably because of greater retention of CPT inside the tumors and thereby allowing increased chemotherapeutic potential of the drug (FIG. 7B).

## CN1CCN(C2=Nc3ccccc3Oc3ccc(Cl)cc32)CC1.O=C(O)CCC(=O)O [C17, Loxapine succinate]
siBLM, compound and CPT
  tumor growth: rescued tumor growth
siControl, compound and CPT compared to only CPT
  tumor volume: decreased tumor volume
siMRP2, compound and CPT
  tumor development: decreased tumor development
